Test results reported in US5140009A (Tap Pharmaceuticals, Inc., priority 1990, dated 1992).
Numbered stars: 1 amine (or outer) side, 2 acyl side, 3 side chain; on linkers, the order of the positions; unused ones are H or OH. Square brackets hold non-standard residues; d marks the D form. Side chains are listed from the residue outwards. Peptide text beside a SMILES is read from it. * marks the point of attachment. Propanoyl(3-(4-F-phenyl)) = O=C(CCc1ccc(F)cc1)*; Phe(4-Cl) = N[C@@H](Cc1ccc(Cl)cc1)C(=O)O; X10 = O=C([C@@H](Cc1cncs1)N[*:1])[*:2]; 1Nal = N[C@@H](Cc1cccc2ccccc12)C(=O)O; d1Nal = N[C@H](Cc1cccc2ccccc12)C(=O)O; Lys(iPr) = CC(C)NCCCC[C@H](N)C(=O)O; NMeY = CN[C@@H](Cc1ccc(O)cc1)C(=O)O; Pyrazinecarbonyl = O=C(c1cnccn1)*; Benzoyl(4-F) = O=C(c1ccc(F)cc1)*; NMeF = CN[C@@H](Cc1ccccc1)C(=O)O; d3Pal = N[C@H](Cc1cccnc1)C(=O)O; d2Thi = N[C@H](Cc1cccs1)C(=O)O; Nicotinoyl = O=C(c1cccnc1)*; X12 = O=C(c1ccc(F)c(Cl)c1)*; Morpholide = C1CN(*)CCO1; Orn = NCCC[C@H](N)C(=O)O; CO = O=C([*:1])[*:2]; azaGly = NNC(=O)O

The compounds below were run against T1, LHRH receptors (Rattus norvegicus, UniProt P30969) (assay: Receptor Binding (radioligand receptor binding assay)). Details: table 4; rat pituitary membranes, radioligand 50 pM, 2 hours at 4° C.; read-out: Receptor Binding pkI (converted).
T1 construct: Pituitary membranes containing LHRH receptors are prepared in batches from quick-frozen rat pituitaries; tissue Hilltop Labs; host or cells: rat pituitary membranes
T1 sequence (P30969 1-327): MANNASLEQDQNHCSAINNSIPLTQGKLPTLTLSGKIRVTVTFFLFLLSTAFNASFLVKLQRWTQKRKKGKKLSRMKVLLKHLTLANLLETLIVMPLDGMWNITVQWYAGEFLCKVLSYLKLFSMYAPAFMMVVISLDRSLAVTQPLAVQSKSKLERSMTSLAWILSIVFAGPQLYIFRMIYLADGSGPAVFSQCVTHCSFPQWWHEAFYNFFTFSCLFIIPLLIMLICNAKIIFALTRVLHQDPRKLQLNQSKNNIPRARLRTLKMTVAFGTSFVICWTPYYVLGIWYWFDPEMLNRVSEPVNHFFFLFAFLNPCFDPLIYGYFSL

Ki [nM]	SMILES
0.0209	COc1ccc(C[C@H](NC(=O)[C@H](CO)NC(=O)[C@@H](Cc2cccc3ccccc23)NC(=O)CCc2ccc(F)cc2)C(=O)N[C@H](CCCCNC(=O)c2cnccn2)C(=O)N[C@@H](CC(C)C)C(=O)N[C@@H](CCCCNC(C)C)C(=O)N2CCC[C@H]2C(=O)N[C@H](C)C(N)=O)cc1 [Compound 203, (3-10)[N-(3-(4-Fluorophenyl)propionyl)-D-1-Nal^3 -Tyr^5 (OMe)-D-Lys^6 (N-epsilon-2-carbonylpyrazinyl)-Lys^8 (N-epsilon-isopropyl)-D-Ala^10]LHRH] ({Propanoyl(3-(4-F-phenyl))}-[d1Nal]SY(Me)[dK](Pyrazinecarbonyl)L[Lys(iPr)]P[dA]-NH2)
0.0214	CC(C)C[C@H](NC(=O)[C@@H](Cc1cncs1)NC(=O)[C@H](Cc1ccc(O)cc1)N(C)C(=O)[C@H](CO)NC(=O)[C@@H](Cc1cccc2ccccc12)NC(=O)CCc1ccc(F)cc1)C(=O)N[C@@H](CCCCNC(C)C)C(=O)N1CCC[C@H]1C(=O)N[C@H](C)C(N)=O [Compound 204, (3-10)[N-(3-(4-Fluorophenyl)propionyl)-D-1-Nal^3 -NMeTyr^5 -D-Thiaz6-Lys^8 (N-epsilon-isopropyl)-D-Ala^10]LHRH] ({Propanoyl(3-(4-F-phenyl))}-[d1Nal]S[NMeY][X10]L[Lys(iPr)]P[dA]-NH2)
0.00891	CC(C)C[C@H](NC(=O)[C@@H](CCCCNC(=O)N1CCOCC1)NC(=O)[C@H](Cc1ccc(O)cc1)N(C)C(=O)[C@H](CO)NC(=O)[C@@H](Cc1cccc2ccccc12)NC(=O)CCc1ccc(F)cc1)C(=O)N[C@@H](CCCNC(=N)N)C(=O)N1CCC[C@H]1C(=O)N[C@H](C)C(N)=O [Compound 210, N-(3-(4-Fluorophenyl)propionyl)-D-1-Nal-Ser-NMeTyr-D-Lys(N-epsilon-morpholinecarbonyl)-Leu-Arg-Pro-D-AlaNH2] ({Propanoyl(3-(4-F-phenyl))}-[d1Nal]S[NMeY][dK]([CO-Morpholide])LRP[dA]-NH2)
0.0148	CC(C)C[C@H](NC(=O)[C@@H](CCCCNC(=O)N1CCOCC1)NC(=O)[C@H](Cc1ccc(O)cc1)N(C)C(=O)[C@H](CO)NC(=O)[C@@H](Cc1cccc2ccccc12)NC(=O)CCc1ccc(F)cc1)C(=O)N[C@@H](CCCCNC(C)C)C(=O)N1CCC[C@H]1C(=O)N[C@H](C)C(N)=O [Compound 213, N-(3-(4-Fluorophenyl)propionyl)-D-1-Nal-Ser-NMeTyr-D-Lys(N-epsilon-morpholnecarbonyl)-Leu-Lys(N-epsilon-isopropyl)-Pro-D-AlaNH2] ({Propanoyl(3-(4-F-phenyl))}-[d1Nal]S[NMeY][dK]([CO-Morpholide])L[Lys(iPr)]P[dA]-NH2)
0.832	CC(=O)NCCC[C@H](NC(=O)c1ccc(F)cc1)C(=O)N[C@H](Cc1cccc2ccccc12)C(=O)N[C@@H](CO)C(=O)N(C)[C@@H](Cc1ccc(O)cc1)C(=O)N[C@H](CCCCNC(=O)c1cccnc1)C(=O)N[C@@H](CC(C)C)C(=O)N[C@@H](CCCCNC(C)C)C(=O)N1CCC[C@H]1C(=O)N[C@H](C)C(N)=O [Compound 218, N-alpha-(4-Fluorobenzoyl)-Orn(N-delta-acetyl)-D-1-Nal-Ser-NMeTyr-D-Lys(N-epsilon-nicotinyl)-Leu-Lys(N-epsilon-isopropyl)-Pro-D-AlaNH2] ({Benzoyl(4-F)}-[Orn](Ac)[d1Nal]S[NMeY][dK](Nicotinoyl)L[Lys(iPr)]P[dA]-NH2)

Second part, the compound before the results:

SMILES	Ki [nM]
CC(C)C[C@H](NC(=O)[C@@H](CCCCNC(=O)c1cccnc1)NC(=O)[C@H](Cc1ccccc1)N(C)C(=O)[C@H](CO)NC(=O)[C@@H](Cc1cccc2ccccc12)NC(=O)CCc1ccc(F)cc1)C(=O)N[C@@H](CCCCNC(C)C)C(=O)N1CCC[C@H]1C(=O)N[C@H](C)C(N)=O [Compound 205, (3-10)[N-(3-(4-Fluorophenyl)propionyl)-D-1-Nal^3 -NMePhe^5 -D-Lys^6 (N-epsilon-nicotinyl)-D-Ala^10]LHRH] ({Propanoyl(3-(4-F-phenyl))}-[d1Nal]S[NMeF][dK](Nicotinoyl)L[Lys(iPr)]P[dA]-NH2)	0.0302
CC(C)C[C@H](NC(=O)[C@@H](Cc1cccnc1)NC(=O)[C@H](Cc1ccc(O)cc1)N(C)C(=O)[C@H](CO)NC(=O)[C@@H](Cc1cccc2ccccc12)NC(=O)CCc1ccc(F)cc1)C(=O)N[C@@H](CCCCNC(C)C)C(=O)N1CCC[C@H]1C(=O)N[C@H](C)C(N)=O [Compound 208, (3-10)[N-(3-(4-Fluorophenyl)propionyl)-D-1-Nal^3 -NMeTyr^5 -D-3-Pal^6 -Lys^8 (N-epsilon-isopropyl)-D-Ala^10]LHRH] ({Propanoyl(3-(4-F-phenyl))}-[d1Nal]S[NMeY][d3Pal]L[Lys(iPr)]P[dA]-NH2)	0.0126
CC(C)C[C@H](NC(=O)[C@@H](CCCCNC(=O)c1cccnc1)NC(=O)[C@H](CCCCNC(=O)NN)NC(=O)[C@H](CO)NC(=O)[C@@H](Cc1cccc2ccccc12)NC(=O)CCc1ccc(F)cc1)C(=O)N[C@@H](CCCNC(=N)N)C(=O)N1CCC[C@H]1C(=O)N[C@H](C)C(N)=O [Compound 212, N-(3-(4-Fluorophenyl)propionyl)-D-1-Nal-Ser-Lys(N-epsilon-hydrazinecarbonyl)-D-Lys(N-epsilon-nicotinyl)-Leu-Arg-Pro-D-AlaNH2] ({Propanoyl(3-(4-F-phenyl))}-[d1Nal]SK(azaGly)[dK](Nicotinoyl)LRP[dA]-NH2)	0.0339
CC(=O)NCCCC[C@H](NC(=O)c1ccc(F)c(Cl)c1)C(=O)N[C@H](Cc1cccc2ccccc12)C(=O)N[C@@H](CO)C(=O)N(C)[C@@H](Cc1ccc(O)cc1)C(=O)N[C@H](CCCCN)C(=O)N[C@@H](CC(C)C)C(=O)N[C@@H](CCCNC(=N)N)C(=O)N1CCC[C@H]1C(=O)N[C@H](C)C(N)=O [Compound 214, N-alpha-(3-Chloro-4-Fluorobenzoyl)-Lys(N-epsilon-acetyl)-D-1-Nal-Ser-NMeTyr-D-Lys-Leu-Arg-Pro-D-AlaNH2] (X12-K(Ac)[d1Nal]S[NMeY][dK]LRP[dA]-NH2)	0.141
CC(=O)NCCC[C@H](NC(=O)c1ccc(F)cc1)C(=O)N[C@H](Cc1cccc2ccccc12)C(=O)N[C@@H](CO)C(=O)N(C)[C@@H](Cc1ccc(O)cc1)C(=O)N[C@H](Cc1cncs1)C(=O)N[C@@H](CC(C)C)C(=O)N[C@@H](CCCCNC(C)C)C(=O)N1CCC[C@H]1C(=O)N[C@H](C)C(N)=O [Compound 215, N-alpha-(4-Fluorobenzoyl)-Orn(N-delta-acetyl)-D-1-Nal-Ser-NMeTyr-D-Thiaz-Leu-Lys(N-epsilon-isopropyl)-Pro-D-AlaNH2] ({Benzoyl(4-F)}-[Orn](Ac)[d1Nal]S[NMeY][X10]L[Lys(iPr)]P[dA]-NH2)	0.339
CC(=O)NCCC[C@H](NC(=O)c1ccc(F)cc1)C(=O)N[C@H](Cc1cccc2ccccc12)C(=O)N[C@@H](CO)C(=O)N[C@@H](Cc1ccc(O)cc1)C(=O)N[C@H](CCCCNC(=O)c1cccnc1)C(=O)N[C@@H](CC(C)C)C(=O)N[C@@H](CCCNC(=N)N)C(=O)N1CCC[C@H]1C(=O)N[C@H](C)C(N)=O [Compound 217, N-alpha-(4-Fluorobenzoyl)-Orn(N-delta-acetyl)-D-1-Nal-Ser-Tyr-D-Lys(N-epsilon-nicotinyl)-Leu-Arg-Pro-D-AlaNH2] ({Benzoyl(4-F)}-[Orn](Ac)[d1Nal]SY[dK](Nicotinoyl)LRP[dA]-NH2)	1.91
CC(C)C[C@H](NC(=O)[C@@H](Cc1c[nH]c2ccccc12)NC(=O)[C@H](Cc1ccc(O)cc1)N(C)C(=O)[C@H](CO)NC(=O)[C@@H](Cc1c[nH]c2ccccc12)NC(=O)[C@@H](Cc1cccc2ccccc12)NC(=O)N1CCOCC1)C(=O)N[C@@H](CCCNC(=N)N)C(=O)N1CCC[C@H]1C(=O)N[C@H](C)C(N)=O [Compound 220, (2-10)[N-(alpha-Morpholinocarbonyl)-D-1-Nal^2 -D-Trp^3,6 -NMeTyr^5 -D-Ala^10]LHRH] ({Morpholide-CO}-[d1Nal][dW]S[NMeY][dW]LRP[dA]-NH2)	0.17
CC(C)C[C@H](NC(=O)[C@@H](Cc1c[nH]c2ccccc12)NC(=O)[C@H](Cc1ccc(O)cc1)N(C)C(=O)[C@H](CO)NC(=O)[C@@H](Cc1c[nH]c2ccccc12)NC(=O)[C@H](Cc1cccc2ccccc12)NC(=O)N1CCOCC1)C(=O)N[C@@H](CCCNC(=N)N)C(=O)N1CCC[C@H]1C(=O)N[C@H](C)C(N)=O [Compound 221, (2-10)[N-(alpha-Morpholinocarbonyl)-1-Nal^2 -D-Trp^3,6 -NMeTyr^5 -D-Ala^10]LHRH] ({Morpholide-CO}-[1Nal][dW]S[NMeY][dW]LRP[dA]-NH2)	0.204
CC(C)C[C@H](NC(=O)[C@@H](Cc1c[nH]c2ccccc12)NC(=O)[C@H](Cc1ccc(O)cc1)NC(=O)[C@H](CO)NC(=O)[C@H](Cc1c[nH]c2ccccc12)NC(=O)[C@H](Cc1cccc2ccccc12)NC(=O)N1CCOCC1)C(=O)N[C@@H](CCCNC(=N)N)C(=O)N1CCC[C@H]1C(=O)N[C@H](C)C(N)=O [Compound 223, (2-10)[N-(alpha-Morpholinocarbonyl)-1-Nal^2 -D-Trp^6 -D-Ala^10]LHRH] ({Morpholide-CO}-[1Nal]WSY[dW]LRP[dA]-NH2)	0.0269
CC(C)C[C@H](NC(=O)[C@@H](CCCCN)NC(=O)[C@H](Cc1ccc(O)cc1)N(C)C(=O)[C@H](CO)NC(=O)[C@@H](Cc1cccs1)NC(=O)[C@H](Cc1ccc(Cl)cc1)NC(=O)N1CCOCC1)C(=O)N[C@@H](CCCNC(=N)N)C(=O)N1CCC[C@H]1C(=O)N[C@H](C)C(N)=O [Compound 230, (2-10)[N-(alpha-Morpholinocarbonyl)-4-Cl-Phe^2 -D-Thia^3 -NMeTyr^5 -D-Lys^6 -D-Ala^10]LHRH] ({Morpholide-CO}-[Phe(4-Cl)][d2Thi]S[NMeY][dK]LRP[dA]-NH2)	0.11
